This note sets out measurements from publication PMC5538713, “RORγt and RORα signature genes in human Th17 cells” (PLoS ONE, 2017).

In one assay the test system is Na+ Channel. In words: Cerep selectivity panel. In kind it is binding.
A further assay has as its target T1, GAL2 (h) (Homo sapiens, UniProt O43603).
T1 construct: purchased Cerep
In words: Cerep selectivity panel. The assay is classed as binding. In short, it runs like this: (§1)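 Tested at 1 µM and 10 µM in a 50-target selectivity panel spanning receptors, ion channels and transporters.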

The target in the next assay is T2, M2 (h) (Homo sapiens, UniProt P08172).
T2 construct: purchased Cerep
T2 sequence (P08172 1-466): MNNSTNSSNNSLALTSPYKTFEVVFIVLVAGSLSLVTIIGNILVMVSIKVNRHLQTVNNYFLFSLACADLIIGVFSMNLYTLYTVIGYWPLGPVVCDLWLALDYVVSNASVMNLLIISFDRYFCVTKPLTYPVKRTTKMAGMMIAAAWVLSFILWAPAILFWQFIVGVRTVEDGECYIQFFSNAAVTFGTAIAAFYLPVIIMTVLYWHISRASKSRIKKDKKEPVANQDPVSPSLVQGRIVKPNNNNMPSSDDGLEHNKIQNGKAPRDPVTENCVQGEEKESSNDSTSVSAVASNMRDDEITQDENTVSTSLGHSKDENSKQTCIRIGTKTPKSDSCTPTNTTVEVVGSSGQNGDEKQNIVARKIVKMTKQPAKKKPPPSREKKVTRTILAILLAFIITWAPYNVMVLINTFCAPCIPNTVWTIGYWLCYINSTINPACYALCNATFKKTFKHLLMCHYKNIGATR
In words: Cerep selectivity panel. The assay is classed as binding. In short, it runs like this: as §1

For another assay, the system named is SST. In words: Cerep selectivity panel. In kind it is binding. In short, it runs like this: as §1
The test system of a further assay is Ca2+ Channel. In words: Cerep selectivity panel. The assay is classed as binding. In short, it runs like this:
as §1

The next assay has as its system SK+ Ca. The experiment in a line: Cerep selectivity panel. The assay is classed as binding.
The next assay addresses T3, RORγ/γt LBD (Homo sapiens, UniProt P51449).
T3 construct: made in house; host or cells: E. coli BL21DE3 GOLD, pET24a
The experiment in a line: ThermoFluor binding assay, RORγ/γt LBD. The conditions noted are these: recombinant human LBD; read-out: ThermoFlour Binding Assay (Kd, nM) RORγ/γt.

The next assay concerns the target T4, M1 (h) (Homo sapiens, UniProt P11229).
T4 construct: purchased Cerep
T4 sequence (P11229 1-460): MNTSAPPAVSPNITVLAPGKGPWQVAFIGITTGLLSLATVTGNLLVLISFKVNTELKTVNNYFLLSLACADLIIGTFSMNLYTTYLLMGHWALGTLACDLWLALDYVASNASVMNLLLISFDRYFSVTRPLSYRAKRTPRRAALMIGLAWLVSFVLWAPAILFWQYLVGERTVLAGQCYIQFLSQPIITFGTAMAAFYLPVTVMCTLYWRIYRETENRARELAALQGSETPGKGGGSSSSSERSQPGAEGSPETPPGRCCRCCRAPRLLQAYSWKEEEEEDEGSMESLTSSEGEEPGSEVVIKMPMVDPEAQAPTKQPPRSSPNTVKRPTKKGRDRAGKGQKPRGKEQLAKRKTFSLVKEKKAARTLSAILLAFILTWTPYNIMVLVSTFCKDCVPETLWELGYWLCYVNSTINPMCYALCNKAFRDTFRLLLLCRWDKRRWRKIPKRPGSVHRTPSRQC
In words: Cerep selectivity panel. In kind it is binding. In short, it runs like this: as §1

The next assay addresses T5, CCR1 (h) (Homo sapiens, UniProt P32246).
T5 construct: purchased Cerep
The experiment in a line: Cerep selectivity panel. The assay is classed as binding. In short, it runs like this:
as §1

The subject of another assay is K Channel. The experiment in a line: Cerep selectivity panel. The assay is classed as binding.
A further assay addresses T6, ɣ1 (h) (Homo sapiens, UniProt P25929).
T6 construct: purchased Cerep
T6 sequence (P25929 1-384): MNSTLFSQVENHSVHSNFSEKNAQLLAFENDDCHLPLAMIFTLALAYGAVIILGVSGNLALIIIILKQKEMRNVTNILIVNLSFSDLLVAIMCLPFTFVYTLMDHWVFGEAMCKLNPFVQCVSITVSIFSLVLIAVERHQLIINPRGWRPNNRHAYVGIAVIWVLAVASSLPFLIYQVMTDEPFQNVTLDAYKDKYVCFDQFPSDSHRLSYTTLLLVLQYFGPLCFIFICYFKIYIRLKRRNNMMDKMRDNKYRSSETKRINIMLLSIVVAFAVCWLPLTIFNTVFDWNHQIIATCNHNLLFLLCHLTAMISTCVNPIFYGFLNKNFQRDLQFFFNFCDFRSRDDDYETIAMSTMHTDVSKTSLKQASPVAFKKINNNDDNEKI
The experiment in a line: Cerep selectivity panel. In kind it is binding. The conditions noted are these: for inhibition at 1 µM: read-out: % Inhibition at 1µM. In short, it runs like this: as §1

For the next assay, the target named is T7, 5HT1A (h) (Homo sapiens, UniProt P08908).
T7 construct: purchased Cerep
The experiment in a line: Cerep selectivity panel. In kind it is binding. In short, it runs like this:
as §1

A further assay addresses T8, 5HT1B (Rattus norvegicus, UniProt P28564).
T8 construct: purchased Cerep
In words: Cerep selectivity panel. The assay is classed as binding. In short, it runs like this:
as §1

The target in the next assay is T9, A1 (h) (Homo sapiens, UniProt P30542).
T9 construct: purchased Cerep
T9 sequence (P30542 1-326): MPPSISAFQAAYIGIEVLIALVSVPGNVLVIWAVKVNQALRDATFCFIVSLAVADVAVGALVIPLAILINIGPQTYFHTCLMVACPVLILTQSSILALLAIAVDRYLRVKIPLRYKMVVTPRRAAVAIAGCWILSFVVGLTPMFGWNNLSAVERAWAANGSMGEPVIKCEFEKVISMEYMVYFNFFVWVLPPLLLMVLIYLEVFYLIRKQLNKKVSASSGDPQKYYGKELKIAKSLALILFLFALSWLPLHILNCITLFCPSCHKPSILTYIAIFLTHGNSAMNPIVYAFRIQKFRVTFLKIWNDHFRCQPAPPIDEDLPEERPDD
The experiment in a line: Cerep selectivity panel. The conditions noted are these: for inhibition at 1 µM: read-out: % Inhibition at 1µM; for inhibition at 10 µM: read-out: % Inhibition at 10µM. The assay is classed as binding. In short, it runs like this:
as §1

A further assay deals with T10, 5HT7 (h) (Homo sapiens, UniProt P34969).
T10 construct: purchased Cerep
The experiment in a line: Cerep selectivity panel. In kind it is binding. The conditions noted are these: for inhibition at 10 µM: read-out: % Inhibition at 10µM. In short, it runs like this: as §1

For another assay, the target named is T11, VIP 1 (h) (Homo sapiens, UniProt P32241).
T11 construct: purchased Cerep
In words: Cerep selectivity panel. The assay is classed as binding. In short, it runs like this:
as §1

The target in another assay is T12, CCKA (h) (Homo sapiens, UniProt P32238).
T12 construct: purchased Cerep
The experiment in a line: Cerep selectivity panel. The assay is classed as binding. In short, it runs like this: as §1

The target of another assay is T13, H2 (h) (Homo sapiens, UniProt P25021).
T13 construct: purchased Cerep
The experiment in a line: Cerep selectivity panel. In kind it is binding. In short, it runs like this:
as §1

Like-named read-outs stand apart in the source and are kept apart here.

T10 sequence (P34969 whole entry): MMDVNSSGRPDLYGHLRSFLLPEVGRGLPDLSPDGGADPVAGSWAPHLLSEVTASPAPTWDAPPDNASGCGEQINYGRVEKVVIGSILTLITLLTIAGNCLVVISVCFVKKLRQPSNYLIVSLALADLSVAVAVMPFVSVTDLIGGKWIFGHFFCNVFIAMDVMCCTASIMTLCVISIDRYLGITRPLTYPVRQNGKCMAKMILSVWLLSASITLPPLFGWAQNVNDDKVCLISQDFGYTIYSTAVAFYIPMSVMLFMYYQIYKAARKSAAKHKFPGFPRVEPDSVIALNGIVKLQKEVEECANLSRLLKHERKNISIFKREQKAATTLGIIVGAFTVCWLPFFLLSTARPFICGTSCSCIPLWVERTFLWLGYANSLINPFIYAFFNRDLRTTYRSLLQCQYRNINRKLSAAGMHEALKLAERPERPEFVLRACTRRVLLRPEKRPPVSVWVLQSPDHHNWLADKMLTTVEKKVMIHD
T7 sequence (P08908 whole entry): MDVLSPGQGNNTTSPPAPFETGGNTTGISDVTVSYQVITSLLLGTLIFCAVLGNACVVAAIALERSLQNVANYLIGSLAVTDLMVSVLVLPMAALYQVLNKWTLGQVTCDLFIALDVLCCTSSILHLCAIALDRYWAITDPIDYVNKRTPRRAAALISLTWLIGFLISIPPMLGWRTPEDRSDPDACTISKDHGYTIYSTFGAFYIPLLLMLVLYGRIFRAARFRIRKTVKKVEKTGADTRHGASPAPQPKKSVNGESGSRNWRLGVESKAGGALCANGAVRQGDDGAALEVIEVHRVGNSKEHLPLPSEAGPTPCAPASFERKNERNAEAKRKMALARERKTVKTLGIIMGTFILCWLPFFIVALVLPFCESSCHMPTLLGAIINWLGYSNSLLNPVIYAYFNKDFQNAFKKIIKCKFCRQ
T5 sequence (P32246 whole entry): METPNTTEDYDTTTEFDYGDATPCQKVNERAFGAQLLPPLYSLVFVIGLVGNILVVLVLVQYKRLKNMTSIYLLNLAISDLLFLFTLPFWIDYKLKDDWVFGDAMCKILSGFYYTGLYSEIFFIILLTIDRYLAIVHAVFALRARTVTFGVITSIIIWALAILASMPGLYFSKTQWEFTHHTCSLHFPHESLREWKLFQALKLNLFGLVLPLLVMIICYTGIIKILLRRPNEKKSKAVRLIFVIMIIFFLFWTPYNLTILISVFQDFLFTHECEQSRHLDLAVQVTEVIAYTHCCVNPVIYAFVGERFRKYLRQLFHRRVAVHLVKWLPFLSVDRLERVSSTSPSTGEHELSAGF
T1 sequence (O43603 whole entry): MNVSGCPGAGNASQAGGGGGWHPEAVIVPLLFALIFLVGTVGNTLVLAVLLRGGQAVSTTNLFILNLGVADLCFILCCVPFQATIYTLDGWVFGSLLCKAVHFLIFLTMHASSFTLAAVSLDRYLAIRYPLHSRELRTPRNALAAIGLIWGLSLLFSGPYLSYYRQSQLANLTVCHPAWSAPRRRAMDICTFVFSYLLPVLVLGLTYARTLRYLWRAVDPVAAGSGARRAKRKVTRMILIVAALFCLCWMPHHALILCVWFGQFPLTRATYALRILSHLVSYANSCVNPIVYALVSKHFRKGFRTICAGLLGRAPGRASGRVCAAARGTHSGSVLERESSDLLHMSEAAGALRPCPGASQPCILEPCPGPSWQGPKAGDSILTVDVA
T12 sequence (P32238 whole entry): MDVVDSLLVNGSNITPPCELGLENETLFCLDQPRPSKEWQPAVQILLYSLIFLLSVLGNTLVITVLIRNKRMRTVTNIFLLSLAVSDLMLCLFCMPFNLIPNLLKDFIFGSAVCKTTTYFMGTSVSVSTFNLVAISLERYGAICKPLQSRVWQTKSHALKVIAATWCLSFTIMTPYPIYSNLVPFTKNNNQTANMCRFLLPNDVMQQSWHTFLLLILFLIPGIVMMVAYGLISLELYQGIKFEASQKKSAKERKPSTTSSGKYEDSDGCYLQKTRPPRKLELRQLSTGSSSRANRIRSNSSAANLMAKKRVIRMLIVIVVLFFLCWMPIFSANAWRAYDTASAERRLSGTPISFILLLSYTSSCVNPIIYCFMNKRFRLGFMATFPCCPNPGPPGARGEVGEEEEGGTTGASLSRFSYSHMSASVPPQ
T8 sequence (P28564 whole entry): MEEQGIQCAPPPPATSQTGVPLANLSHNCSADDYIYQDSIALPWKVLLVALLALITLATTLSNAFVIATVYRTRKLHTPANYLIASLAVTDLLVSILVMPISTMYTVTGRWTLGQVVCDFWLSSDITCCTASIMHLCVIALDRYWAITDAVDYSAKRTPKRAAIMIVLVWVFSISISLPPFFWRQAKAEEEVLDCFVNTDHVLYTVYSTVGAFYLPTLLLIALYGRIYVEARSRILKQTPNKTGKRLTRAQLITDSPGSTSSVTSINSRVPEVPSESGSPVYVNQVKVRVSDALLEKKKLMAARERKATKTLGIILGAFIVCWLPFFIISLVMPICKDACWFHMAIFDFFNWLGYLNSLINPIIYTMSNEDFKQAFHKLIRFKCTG
T11 sequence (P32241 31-457): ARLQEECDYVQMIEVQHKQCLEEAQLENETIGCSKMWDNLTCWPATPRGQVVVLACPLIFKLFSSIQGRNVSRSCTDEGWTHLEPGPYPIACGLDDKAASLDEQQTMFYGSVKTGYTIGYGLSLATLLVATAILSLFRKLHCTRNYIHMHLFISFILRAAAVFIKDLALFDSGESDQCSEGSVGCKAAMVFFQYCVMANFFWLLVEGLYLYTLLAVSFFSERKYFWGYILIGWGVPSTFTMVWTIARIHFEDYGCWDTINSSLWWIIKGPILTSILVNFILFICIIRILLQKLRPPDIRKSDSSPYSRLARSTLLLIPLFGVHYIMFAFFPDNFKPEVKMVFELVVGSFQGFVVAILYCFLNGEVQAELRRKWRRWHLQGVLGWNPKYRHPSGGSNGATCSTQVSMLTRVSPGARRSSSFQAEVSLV
T3 sequence (P51449 258-518): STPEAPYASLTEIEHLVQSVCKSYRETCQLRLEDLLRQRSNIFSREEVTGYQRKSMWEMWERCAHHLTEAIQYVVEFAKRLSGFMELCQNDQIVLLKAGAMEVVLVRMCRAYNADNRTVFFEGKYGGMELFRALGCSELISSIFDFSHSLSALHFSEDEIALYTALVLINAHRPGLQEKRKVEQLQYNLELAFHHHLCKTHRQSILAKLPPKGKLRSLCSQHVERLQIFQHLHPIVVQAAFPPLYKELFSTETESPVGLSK
T13 sequence (P25021 whole entry): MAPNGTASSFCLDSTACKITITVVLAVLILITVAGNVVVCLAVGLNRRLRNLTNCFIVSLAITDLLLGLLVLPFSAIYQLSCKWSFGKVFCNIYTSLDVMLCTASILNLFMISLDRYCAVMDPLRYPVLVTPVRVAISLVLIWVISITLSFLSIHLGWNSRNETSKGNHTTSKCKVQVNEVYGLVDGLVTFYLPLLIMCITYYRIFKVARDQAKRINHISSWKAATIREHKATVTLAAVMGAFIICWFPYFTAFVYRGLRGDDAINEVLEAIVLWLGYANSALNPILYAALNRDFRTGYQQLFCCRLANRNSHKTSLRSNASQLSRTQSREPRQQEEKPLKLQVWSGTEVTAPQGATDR
Procedure for RORγ/γt LBD: Recombinant human RORγ, RORα and RORβ LBD proteins were prepared for ThermoFlour binding assay. […] All recombinant proteins contained an additional amino acid sequence of [sequence] at the N-terminal of LBD. After transformation of the bacteria strain BL21DE3 GOLD (Agilent) with the plasmids, 10 to 20 L cultures were grown to 1 OD and recombinant protein expression was induced overnight at 16°C with 0.2mM isopropyl-beta-D-thiogalactopyranoside (IPTG) (Corning). […] His-tagged proteins were collected with Ni-NTA resin (Qiagen) and purified with a HiTrap Q HP column (GE Life Sciences) eluted with a 40 CV gradient of 50-500mM NaCl.
The ThermoFluor® assay was established to measure the change in protein stability upon binding with compounds. 1-Anilinonaphthalene-8-Sulfonic Acid (1,8-ANS) (Invitrogen) was used as a fluorescent dye to label the test proteins. […] Assay plates were robotically loaded onto a thermostatically controlled PCR-type thermal block and then heated at a ramp-rate of 1°C/min. Fluorescence emission was initiated by continuous illumination with UV light (LC6, Hamamatsu) via fiber optic with a band-pass filter (380–400 nm) and detected with a CCD camera (Sensys, Roper Scientific) filtered to detect signal of 500 ± 25 nm. […]

On to `COc1nc2ccc([C@](O)(c3ccc(Cl)cc3)c3cncn3C)cc2c(Cl)c1Cc1ccc(-n2cccn2)cc1` [B], for which the figures for the “% Inhibition at 10µM” value in the assay with Na+ Channel, in the assay with SST and with Ca2+ Channel were 3%, 1% and 21%, respectively. The inhibition at 10 µM was determined as 1% on GAL2 (h) and 23% at M2 (h). Besides, testing at 1 µM at M2 (h) gave an inhibition of 16%. For the same compound, the “% Inhibition at 1µM” value in the assay with Ca2+ Channel was determined as 3%.
For `COc1nc2ccc([C@@](O)(c3ccccc3)C3CCN(C(C)=O)CC3)cc2c(Cl)c1Cc1ccc(-n2cccn2)cc1` [C], the “% Inhibition at 1µM” value with SK+ Ca (1 µM) was 1%. The “% Inhibition at 10µM” value was found to be 5% in the assay on SK+ Ca and 17% with K Channel. The Kd at RORγ/γt LBD came to 4.4 nM. Further, the results for the inhibition at 1 µM against M1 (h) and against CCR1 (h) (1 µM) were 12% and 17%, respectively. This compound registered an inhibition at 10 µM against M1 (h) of 21%.
With `COc1nc2ccc([C@@](O)(c3ccc(C)nc3C)c3cnnn3C)cc2c(Cl)c1Cc1ccc(C(F)(F)F)cc1` [compound A], the “% Inhibition at 1µM” value turned out to be 20% with Na+ Channel (1 µM) and 2% in the assay with Ca2+ Channel. Moreover, the “% Inhibition at 10µM” value amounted to 45% in the assay with Na+ Channel; 1% in the assay on SK+ Ca; 6% with SST; 32% in the assay with Ca2+ Channel; 9% with K Channel. Also, the inhibition at 1 µM at ɣ1 (h) (ɣ1 (h), 1 µM) was determined as 5%; against 5HT1A (h) (1 µM), 14%; on A1 (h) (A1 (h), 1 µM), 19%; on 5HT7 (h) (5HT7 (h), 1 µM), 4%; at VIP 1 (h) it was 3%. Further, the inhibition at 10 µM is 5% on ɣ1 (h) (ɣ1 (h), 10 µM); 19% at 5HT1A (h) (10 µM); 1% on 5HT1B; 30% on A1 (h) (A1 (h), 10 µM); 4% on 5HT7 (h) (5HT7 (h), 10 µM).
Consider `CN(C)c1nc2ccc(C(O)(c3ccncc3)c3cncn3C)cc2c(Cl)c1-c1ccccc1` (stereo not drawn) [compound D], for which the inhibition at 1 µM on ɣ1 (h) stood at 16%; against M2 (h) it was 10%; on CCKA (h) it was 11%; against M1 (h), 6%; on A1 (h), 18%. Further, the inhibition at 10 µM came to 47% on M2 (h); 67% against M1 (h); 6% against CCR1 (h) (10 µM); 50% on A1 (h); 16% at 5HT7 (h); 5% against H2 (h).
